Results as given in patent publication US20060111335A1, “Photoactivated anti-viral and anti-cancer agent” (priority 2002, published 2006).

What was measured:
[1] = tested on: M109 cells; assay: Phototoxicity to M109 tumor cells, MTT assay; format: cell-based, mouse; conditions: dark, zero time point
Method: (§1) Photolysis with Tumor Cells.
Procedures for cell maintenance, cell plating, drug incubation, photolysis and MTT assay are all same as that used for the KB cell lines. A small amount of dark toxicity was observed (about 15%). A considerable amount of killing occurs with light alone after 30 and 40 minutes of irradiation (FIG. 10).

[2] = tested on: GN4 cells; assay: Phototoxicity to GN4 tumor cells, MTT assay; format: cell-based, canine; conditions: dark, zero time point
Method: as §1
Media was decanted from the flask. […] Trypsin-EDTA was then decanted and the flask was incubated at 37° C. for 8 minutes. […] Released cells were suspended in 5 mL of media and shaken well. […] The remaining cells were discarded.
Cells were plated, incubated with the drug, and photolysis was conducted as for the KB cell lines.

[3] = tested on: SINV; assay: Photoinactivation of SINV, virus infectivity; format: cell-based, Sindbis virus
Method: General. The quantity of DNA was determined by the Burton assay (Burton, Biochem. J., 62:315-322 (1956)), and its rhodium content was quantitated using flame atomic absorption spectroscopy (AA). The equilibrium constant for interaction between DPPZPHEN and CT-DNA in the dark was calculated from UV-Vis absorption titration measurements at 380 nm (Wolfe et al., Biochem., 26:6392-6396 (1987); Schemel et al., Biopolymers, 10:465-480 (1971)). Cell viability was determined using the MTT assay (Denizot et al., J. Immunol. Methods, 89:271-277 (1986)). SINV was purified on sucrose gradients as previously described (Owen et al., J. Virol., 70:2757-2763 (1996)). The titer was generally 7-8 log10 pfu/mL at the beginning of each experiment.
Photolysis with SINV. DPPZPHEN/SINV solutions were prepared by adding a 0.3 mL aliquot of a 600 μM DPPZPHEN stock solution in PBS to 3 mL of purified virus at a concentration of 7-8 log10 pfu/mL and bringing the total volume to 4 mL. The DPPZPHEN/SINV solutions were incubated for 2 hours prior to irradiation, following which 3 mL of the […] 100 μL were withdrawn over time and analyzed for virus infectivity. The inactivation rate constant was calculated using simple hit theory (Hiatt, Bacteriol. Rev., 28:150-163 (1964); Houghtaling et al., Photochem. Photobiol., 71:20-28 (2000)). For the studies measuring infectivity of genome RNA, a 6.9 μL aliquot of 0.623 M DPPZPHEN stock solution in DMSO was added to a 100 μL of TE12 wild type […] solution (10 log10 pfu/mL) to obtain a 40 mM DPPZPHEN/virus solution. Aliquots of 50 μL were placed into 250 μL inserts, incubated for 2 hours, and either kept in the dark or irradiated for 60 minutes with light >330 nm. At the completion of the experiment all the samples were diluted with 6 mL 1×PBS buffer and precipitated for 2 hours at 4° C. with 10% PEG+NaCl (200 mM). The PEG precipitated virus was centrifuged at 4° C. for 30 minutes at 14,000 rpm, and the resulting pellet re-suspended in 200 μL of 1×PBS buffer and extracted with equal volumes of phenol and chloroform. The virion RNA was precipitated with ethanol, re-suspended in 100 μL of 1×PBS, and electroporated into about 2×10^7 baby hamster kidney (BHK) cells using 0.2-cm-gap cuvettes. The electroporation utilized 200 Ohms, 1.5 kV, and 25 μF. The cells were incubated at 37° C. for 12 hours in MEM supplemented with 10% fetal calf serum and the viral supernatants were harvested and assayed for the presence of infectious virus by plaque assay.

[4] = tested on: SINV genomic RNA; assay: Infectivity of genome RNA from treated SINV transfected into BHK cells, plaque assay; format: cell-based, Sindbis virus; conditions: irradiated 60 minutes, >330 nm
Method: Photolysis with SINV. DPPZPHEN/SINV solutions were prepared by adding a 0.3 mL aliquot of a 600 μM DPPZPHEN stock solution in PBS to 3 mL of purified virus at a concentration of 7-8 log10 pfu/mL and bringing the total volume to 4 mL. The DPPZPHEN/SINV solutions were incubated for 2 hours prior to irradiation, following which 3 mL of the solution was irradiated in quartz cuvettes with 355 nm light under a constant stream of nitrogen with stirring Aliquots of 100 μL were withdrawn over time and analyzed for virus infectivity. The inactivation rate constant was calculated using simple hit theory (Hiatt, Bacteriol. Rev., 28:150-163 (1964); Houghtaling et al., Photochem. Photobiol., 71:20-28 (2000)). For the studies measuring infectivity of genome RNA, a 6.9 μL aliquot of 0.623 M DPPZPHEN stock solution in DMSO was added to a 100 μL of TE12 wild type […] solution (10 log10 pfu/mL) to obtain a 40 mM DPPZPHEN/virus solution. Aliquots of 50 μL were placed into 250 μL inserts, incubated for 2 hours, and either kept in the dark or irradiated for 60 minutes with light >330 nm. At the completion of the experiment all the samples were diluted with 6 mL 1×PBS buffer and precipitated for 2 hours at 4° C. with 10% PEG+NaCl (200 mM). […]

[5] = Reversed phase HPLC elution on C8 column as measure of hydrophobicity; format: physicochemical; conditions: 45% acetonitrile in 100 mM ammonium acetate pH 5.4
Method: Reversed phase high performance liquid chromatography (RP-HPLC) was carried out on C8 columns. Compounds were tested using 20%, 30% and 45% acetonitrile in 100 mM ammonium acetate at pH 5.4 for elution on a C8 column, with the intention of achieving an elution time of about 15 minutes. It was expected that the more hydrophobic a compound, the higher the acetonitrile content one would need for the eluent.

[6] = tested on: cells; assay: Phototoxicity, summary statement of Example XII; format: cell-based
[7] = tested on: KB cells; assay: Phototoxicity to KB tumor cells, MTT assay; conditions: dark, zero time point
Method: Photolysis with Tumor Cells. […] At the beginning of an experiment media was removed from all plates and the cells were washed with 1 mL of PBS or Hank's salt solution. Drug solution (2 mL) or buffer solution (2 mL) was added to each dish. […] Cells were incubated, with or without metal complex, for 4 hours. After incubation, the solutions were removed from the dishes and the dishes were washed with 1 mL of PBS or Hank's salt solution. A fresh 1 mL of PBS or Hank's salt solution was added to each dish and these were placed on a turntable that sat on the top part of the photolysis chamber. […] The plates were then incubated for 40-48 hours before a determination of the extent of cell toxicity by MTT assay.
Cells were incubated in 75 cm^2 culture flasks. They were grown in Dulbecco's Modified Eagles Medium (D-MEM) supplemented with 10% heat inactivated fetal bovine serum (FBS), 1% L-glutamine-penicillin-streptomycin and 1% amphotericin-B. When cells were not plated for use in an experiment, they were transferred when they were 75-100% confluent using the following procedure. Media was decanted from the flask. Cells were rinsed 1-2 times with 10 mL of Hank's Balanced salt solution. […] Trypsin-EDTA was then decanted and the cells were released from the wall of the flask by tapping the side of the flask. Released cells were suspended in 5 mL media and 1 mL of this suspension was placed in a new culture flasks containing 20 mL of fresh media. The remaining cells were discarded. A culture flask can be used for 3 transfers.
Usually 16-24 hours before a photolysis experiment, cells were plated in 35×10 mm tissue culture dishes and incubated at 37° C. until the experiment was begun. Cells were about 75-100% confluent in the 75 cm^2 culture flask when plated. After being washed and released from the flask as described above, cells were suspended in 40 mL media and 1.5 mL of suspension was placed in each dish.
The concentration of the solution was 70 μM.
The cell dishes were incubated with drug or Hanks balanced salt solution (1 mL) for 3 hours. After incubation, solutions were decanted from the plates and 1 mL of Hank's Balanced salt solution were placed in each. […] Following photolysis, Hank's Balanced salt solutions were decanted and 1 mL of fresh media was placed in each plate.
Plates were incubated for 65 hours and then analyzed for cell survival by MT assay. 5 mg/mL MTT solution in water was prepared and 100 μL of this solution was added to each plate and the plates were incubated for 1.5 hours. Purple crystals formed from live cells. Media was gently removed from plates using a Pasteur pipette, the purple crystals that remained at the bottom of the dish were dissolved in 6 mL of isopropanol.
Phototoxicity studies with long wavelength light (>400 nm). […]

## [Cl-].[Cl][Rh+]12([Cl])([N]3C=CC=c4ccc5c(c43)[N]1C=CC=5)[N]1C=CC=c3c1c1c(c4nc5ccccc5nc34)=CC=C[N]12 [DPPZPHEN, cis-dichloro(dipyrido[3,2a-2′3′c]phenazine)(1,10-phenantroline) rhodium(III) chloride]
[1]
  cell toxicity in the absence of light: no appreciable degree of cell toxicity
[2]
  cell toxicity in the absence of light: no appreciable degree of cell toxicity
[3]; 45 μM, 355 nm irradiation
  inactivation rate constant k (simple hit theory): 2.4×10^−19 photons^−1
  reduction in viral titer: 6 log
[3]; dark
  effect of the metal complex on the virus in the dark: unaffected
[3]; oxygen or nitrogen
  rate of photoinactivation under oxygen versus nitrogen: the same under either oxygen or nitrogen
[4]
  plaque formation in cells that received RNA from virus irradiated with compound: no plaque formation
[5]
  elution time: about 15 minutes
[6]
  phototoxicity: are phototoxic
[7]
  cell toxicity in the absence of light: no appreciable degree of cell toxicity
